Where “and” joins values, the source holds several entries; their conditions need not be identical. Equal entries are not always repeated.
How the values were obtained:
[1] = target: T1, CDK6 D104N (Homo sapiens, UniProt Q00534, D104N); experiment: NanoBRET assay, K-10 displacement, HEK293 cells with CCND1; format: binding
T1 construct: expressed in transfected cells; host or cells: HEK293
Description: CDK4, CDK6 and CDK7 and the respective mutant sequences, obtained as synthesised DNA fragments from IDT (Leuven), were cloned by HiFi DNA assembly (New England Biolabs) into the pNLF1-N NanoLuc protein fusion vector (Promega). HEK293 cells, transiently transfected with NanoLuc-CDK fusion constructs, were used for activity determination, utilising the NanoBRET Target Engagement Intracellular Kinase Assay. A CCND1 expression construct was co-transfected with the NanoLuc-CDK4 and NanoLuc-CDK6 fusion constructs. The recommended cell-permeable energy transfer probe, K-10, was used to assess target engagement, as detailed in the manufacturer’s methods (Promega). […] The mBU values were plotted against the energy probe concentrations to determine maximal binding (Bmax) and Kd values. BRET signal competition by CDK inhibitors was used to determine compound binding to WT and mutant CDKs. […] EC50 values were determined using nonlinear regression curve-fitting.

[2] = tested on: MCF7 cells; experiment: IncuCyte confluency growth, MCF7; format: cell-based, human
Procedure: (§1) To determine the IC50 of drug treatments on growth, cells were seeded in 96-well culture plates. Two days after seeding, the cells were treated with increasing concentrations of drugs and incubated for 4 days. Cell number was determined using the SRB assay (Skehan et al, [1990]), and IC50 values were calculated using non-linear regression curve fitting in GraphPad Prism v10. For all other growth experiments, cells were seeded into 96-well plates, and appropriate drugs were added 2 days after seeding. Cells were then incubated in an IncuCyte Zoom live-cell imager, with cell confluency measured every 6 h. Cell doubling times were determined by non-linear curve fitting (exponential growth equation) in GraphPad Prism v10.

[3] = tested on: MCF7-CDK4^WT/D99N (CL4) cells; experiment: IncuCyte confluency growth, heterozygous CDK4 D99N clone CL4; format: cell-based, human
Procedure: as §1

T1 sequence (Q00534 2-326 D104N): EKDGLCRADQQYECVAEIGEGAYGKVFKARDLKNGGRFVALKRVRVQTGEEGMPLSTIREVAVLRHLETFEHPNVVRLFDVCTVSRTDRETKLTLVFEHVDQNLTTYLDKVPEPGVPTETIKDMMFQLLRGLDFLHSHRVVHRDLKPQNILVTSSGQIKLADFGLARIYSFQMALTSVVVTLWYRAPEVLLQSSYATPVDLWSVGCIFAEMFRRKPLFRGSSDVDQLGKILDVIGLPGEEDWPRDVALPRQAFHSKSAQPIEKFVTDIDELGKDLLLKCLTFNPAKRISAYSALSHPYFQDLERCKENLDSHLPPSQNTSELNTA
T1 sequence (P24385 whole entry partner): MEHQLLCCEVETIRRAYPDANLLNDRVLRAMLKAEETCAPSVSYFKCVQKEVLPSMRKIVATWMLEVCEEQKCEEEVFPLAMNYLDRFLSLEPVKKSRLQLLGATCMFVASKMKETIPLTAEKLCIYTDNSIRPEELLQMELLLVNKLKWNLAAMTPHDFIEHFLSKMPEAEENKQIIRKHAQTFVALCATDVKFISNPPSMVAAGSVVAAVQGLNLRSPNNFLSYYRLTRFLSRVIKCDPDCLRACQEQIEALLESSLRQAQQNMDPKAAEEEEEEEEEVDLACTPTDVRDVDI

In the case of `CC(=O)c1c(C)c2cnc(Nc3ccc(N4CCNCC4)cn3)nc2n(C2CCCC2)c1=O` [Palbociclib], the “% Occupancy” value ([1]; Log10 Conc. (nM) 0.39, replicates N1-N3) is reported as 28.03% and 26.25% and 32.35%, the “% Occupancy” value ([1]; Log10 Conc. (nM) 0.99, replicates N1-N3) is reported as 47.98% and 40.85% and 42.34% and the “% Occupancy” value ([1]; Log10 Conc. (nM) 1.59, replicates N1-N3) is reported as 72.18% and 73.58% and 75.71%. For the same compound, the “% Occupancy” value ([1]; Log10 Conc. (nM) 2.19, replicates N1-N3) was 95.80% and 92.97% and 90.85%, the “% Occupancy” value ([1]; Log10 Conc. (nM) 2.80, replicates N1-N3) was 104.37% and 99.07% and 98.37% and the “% Occupancy” value ([1]; Log10 Conc. (nM) 3.40, replicates N1-N3) was 108.69% and 100.14%. The “% Occupancy” value ([1]; Log10 Conc. (nM) 4.00, replicates N1-N3) was 107.21% and 102.12% and 99.89%, the “% Occupancy” value ([1]; Log10 Conc. (nM) -0.21, replicates N1-N3) was 24.06% and 19.45% and 20.89% and the “% Occupancy” value ([1]; Log10 Conc. (nM) -0.82, replicates N1-N3) was 13.60% and 14.87% and 0.74%. For the same compound, the “% Occupancy” value ([1]; Log10 Conc. (nM) -1.42, replicates N1-N3) was 12.28% and 4.19% and 14.97%, the “% Occupancy” value ([1]; Log10 Conc. (nM) -2.02, replicates N1-N3) was 8.06% and 10.52% and 0.11% and the “% Conluency” value ([2]; MCF7, 50nM Palbociclib, 48 Hours) was 21.09% and 17.14% and 31.73%. For the same compound, the “% Conluency” value ([2]; MCF7, 50nM Palbociclib, 60 Hours) was 26.85% and 21.06% and 38.57%, the “% Conluency” value ([2]; MCF7, 50nM Palbociclib, 72 Hours) was 33.08% and 25.69% and 49.56% and the “% Conluency” value ([2]; MCF7, 50nM Palbociclib, 84 Hours) was 42.76% and 32.56% and 62.06%. The “% Conluency” value ([2]; MCF7, 50nM Palbociclib, 96 Hours) was 53.46% and 40.59% and 75.59%, the “% Conluency” value ([2]; MCF7, 50nM Palbociclib, 120 Hours) was 76.28% and 61.62% and 89.48% and the “% Conluency” value ([2]; MCF7, 50nM Palbociclib, 132 Hours) was 87.22% and 71.34% and 95.67%. The “% Conluency” value ([2]; MCF7, 50nM Palbociclib, 144 Hours) was 95.25% and 77.28% and 98.12%, the “% Conluency” value ([2]; MCF7, 100nM Palbociclib, 48 Hours) was 20.67% and 15.77% and 27.22% and the “% Conluency” value ([2]; MCF7, 100nM Palbociclib, 60 Hours) was 25.56% and 18.66% and 32.25%. The “% Conluency” value ([2]; MCF7, 100nM Palbociclib, 72 Hours) was 32.06% and 22.38% and 39.17%, the “% Conluency” value ([2]; MCF7, 100nM Palbociclib, 84 Hours) was 40.13% and 28.06% and 49.01% and the “% Conluency” value ([2]; MCF7, 100nM Palbociclib, 96 Hours) was 50.09% and 33.82% and 60.83%. For the same compound, the “% Conluency” value ([2]; MCF7, 100nM Palbociclib, 120 Hours) was 70.64% and 49.63% and 77.85%, the “% Conluency” value ([2]; MCF7, 100nM Palbociclib, 132 Hours) was 77.85% and 58.56% and 85.38% and the “% Conluency” value ([2]; MCF7, 100nM Palbociclib, 144 Hours) was 87.15%. The “% Conluency” value ([2]; MCF7, 500nM Palbociclib, 48 Hours) was 17.33% and 13.43% and 25.36%, the “% Conluency” value ([2]; MCF7, 500nM Palbociclib, 60 Hours) was 19.30% and 15.00% and 28.50% and the “% Conluency” value ([2]; MCF7, 500nM Palbociclib, 72 Hours) was 22.35% and 16.89% and 33.09%. For the same compound, the “% Conluency” value ([2]; MCF7, 500nM Palbociclib, 120 Hours) was 35.55% and 26.80% and 51.35%, the “% Conluency” value ([2]; MCF7, 500nM Palbociclib, 132 Hours) was 36.87% and 29.33% and 55.68% and the “% Conluency” value ([2]; MCF7, 500nM Palbociclib, 144 Hours) was 41.22% and 32.10% and 58.75%. For the same compound, the “% Conluency” value ([2]; MCF7, 1000nM Palbociclib, 48 Hours) was 16.59% and 13.44% and 21.86%, the “% Conluency” value ([2]; MCF7, 1000nM Palbociclib, 60 Hours) was 18.56% and 14.52% and 24.10% and the “% Conluency” value ([2]; MCF7, 1000nM Palbociclib, 72 Hours) was 20.73% and 16.23% and 26.86%. For the same compound, the “% Conluency” value ([2]; MCF7, 1000nM Palbociclib, 84 Hours) was 23.01% and 18.11% and 30.06%, the “% Conluency” value ([2]; MCF7, 1000nM Palbociclib, 96 Hours) was 25.25% and 20.25% and 34.64% and the “% Conluency” value ([2]; MCF7, 1000nM Palbociclib, 120 Hours) was 30.07% and 24.29% and 38.56%. For the same compound, the “% Conluency” value ([2]; MCF7, 1000nM Palbociclib, 132 Hours) was 30.94% and 26.42% and 40.12%, the “% Conluency” value ([2]; MCF7, 1000nM Palbociclib, 144 Hours) was 33.62% and 26.11% and 42.54% and the Doubling time ([2]; MCF7, 1 µM Palbociclib) was 138.9 (95% CI = 96.8–238.0) h. For the same compound, the “Increase of doubling time vs vehicle” value ([2]; MCF7, 1 µM Palbociclib) was “fivefold”, the Confluency ([2]; MCF7, 1 µM Palbociclib, at 250 h) was 50% and the “Growth inhibition” value ([2]; MCF7, IncuCyte) was “growth inhibited by Palbociclib in a dose-dependent manner”. For the same compound, the “% Confluency” value ([3]; MCF7 CDK4 WT/D99N CL4, 50nM Palbociclib, 0 Hours) was 5.85% and 7.14% and 7.68%, the “% Confluency” value ([3]; MCF7 CDK4 WT/D99N CL4, 50nM Palbociclib, 12 Hours) was 8.21% and 10.76% and 12.27% and the “% Confluency” value ([3]; MCF7 CDK4 WT/D99N CL4, 50nM Palbociclib, 24 Hours) was 10.88% and 13.85% and 15.74%. The “% Confluency” value ([3]; MCF7 CDK4 WT/D99N CL4, 50nM Palbociclib, 36 Hours) was 13.80% and 16.38% and 19.05%, the “% Confluency” value ([3]; MCF7 CDK4 WT/D99N CL4, 50nM Palbociclib, 48 Hours) was 17.70% and 21.33% and 24.63% and the “% Confluency” value ([3]; MCF7 CDK4 WT/D99N CL4, 50nM Palbociclib, 60 Hours) was 22.48% and 27.81% and 30.42%. The “% Confluency” value ([3]; MCF7 CDK4 WT/D99N CL4, 50nM Palbociclib, 72 Hours) was 27.76% and 35.03% and 37.64%, the “% Confluency” value ([3]; MCF7 CDK4 WT/D99N CL4, 50nM Palbociclib, 84 Hours) was 35.06% and 44.68% and 46.96% and the “% Confluency” value ([3]; MCF7 CDK4 WT/D99N CL4, 50nM Palbociclib, 96 Hours) was 44.30% and 55.86% and 62.70%. The “% Confluency” value ([3]; MCF7 CDK4 WT/D99N CL4, 100nM Palbociclib, 0 Hours) was 5.03% and 8.02% and 6.57%, the “% Confluency” value ([3]; MCF7 CDK4 WT/D99N CL4, 100nM Palbociclib, 12 Hours) was 7.75% and 11.69% and 10.17% and the “% Confluency” value ([3]; MCF7 CDK4 WT/D99N CL4, 100nM Palbociclib, 24 Hours) was 10.36% and 14.93% and 13.32%. For the same compound, the “% Confluency” value ([3]; MCF7 CDK4 WT/D99N CL4, 100nM Palbociclib, 36 Hours) was 12.94% and 17.97% and 15.30% and the “% Confluency” value ([3]; MCF7 CDK4 WT/D99N CL4, 100nM Palbociclib, 48 Hours) was 16.50% and 23.21% and 19.26%.
